Where a SMILES comes first, the peptide text is derived from it. Bridges are numbered along the chain shown (N, C = ends).
Legend:
human SSTR1 = biological target: T1, human SSTR1 (Homo sapiens, UniProt P30872); assay: [125I]-somatostatin binding inhibition, SSTR1 CHO cell membrane fraction; conditions: 25° C., 60 minutes
T1 construct: expressed in transfected cells; host or cells: CHO(dhfr-) cells, clone SSTR1-8-3, plasmid pA-1-11-SSTR1 (vector pAKKO-111)
Experimental: CHO(dhfr^−) cells (1×10^6 cells) were cultured on HAM F12 medium containing 10% fetal bovine serum in a dish with a diameter of 8 cm for 24 hours. Into these cells was introduced 10 μg of the human SSTR1 cDNA expression plasmid pA-1-11-SSTR1 obtained as described above in (2) by the calcium phosphate method (Cell Phect Transfection Kit; Pharmacia). At 24 hours after transfection, the medium was exchanged for Dulbecco's modified Eagle's medium (DMEM) containing 10% dialyzed fetal bovine serum, and cells forming a colony on this medium (namely DHFR^+ cells) were selected. Further, the cells selected were treated by the limiting dilution method for cloning from a single cell, and the somatostatin receptor protein activity was measured in the following manner. […] The [^125I] on the filter paper was measured with a γ counter. […]
The membrane fractions prepared in Reference Example 6 were each diluted to 3 μg/ml with assay buffer. […] After filtration, the radioactivity of [^125I]-somatostatin remaining on the filter paper was measured. For each test substance, the binding inhibition percentage (%) was calculated according to the formula: PBM=(B−NSB)/(B0−NSB)×100 (where PBM: percent maximum binding; B: radioactivity when the test sample is added; B0: maximum bound radioactivity; NSB: non-specifically bound radioactivity). […]

human SSTR2 = biological target: T2, human SSTR2 (Homo sapiens, UniProt P30874); assay: cAMP accumulation inhibiting activity in SSTR2 expressing CHO cells (forskolin stimulated); format: cell-based; conditions: forskolin 10 μM, CHO cells SSTR2-HS5-9; read-out: ED50, inhibition of intracellular cAMP accumulation, SSTR2
T2 construct: expressed in transfected cells; host or cells: CHO(dhfr-) cells, clone SSTR2-HS5-9, plasmid pAC01 (vector pAKKO-111)
T2 sequence (P30874 whole entry): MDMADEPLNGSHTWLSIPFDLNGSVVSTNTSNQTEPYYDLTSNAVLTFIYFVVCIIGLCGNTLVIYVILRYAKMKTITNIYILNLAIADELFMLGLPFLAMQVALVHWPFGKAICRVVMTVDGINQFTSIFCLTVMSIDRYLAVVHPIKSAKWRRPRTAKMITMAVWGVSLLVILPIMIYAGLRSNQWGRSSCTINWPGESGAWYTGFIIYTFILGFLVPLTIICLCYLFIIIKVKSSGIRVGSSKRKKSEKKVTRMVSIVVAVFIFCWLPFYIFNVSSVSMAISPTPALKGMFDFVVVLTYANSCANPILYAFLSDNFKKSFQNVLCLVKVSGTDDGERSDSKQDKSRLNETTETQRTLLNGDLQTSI
Experimental: (§1) For measuring the intracellular accumulations of cyclic adenosine 3′,5′-monophosphate (cAMP), the human somatostatin receptor expressing cell lines SSTR2-HS5-9, SSTR3-15-19, SSTR4-1-2 and SSTR5-32-4 respectively described in Reference Example 2 (3), Reference Example 3 (3), Reference Example 4 (3) and Reference Example 5 (3) were multiplied on 24-well plates until confluency. Said cells were washed with two 1-ml portions of medium A [Dulbecco-'s modified Eagle's medium (DMEM), 20 mM 2-[4-(2-hydroxyethyl)-1-piperazinyl]ethanesulfonic acid (HEPES) (pH. 7.5), 0.2% BSA, 0.2 mM 3-isobutyl-1-methylxanthine (IBMX)] and then 400 μl of medium A was added to each well and incubation was carried out at 37° C. for 1 hour. To each well were added 50 μl of a hCS-15 or hCS-17 solution (each diluted to a concentration 10 times the final concentration with medium A) and 50 μl of a forskolin solution (final concentration: 10 μM), and incubation was carried out at 37° C. for 30 minutes. The cells were washed with two 1-ml portions of medium A and then 500 μl of medium A and 100 μL of 20% aqueous perchloric acid solution were added to each well, followed by standing at 4° C. for 20 minutes for cell lysis. […] The amount of cAMP contained in this extract was determined using an Amersham's kit (cAMP EIA system).

human SSTR5 = biological target: T3, human SSTR5 (Homo sapiens, UniProt P35346); assay: cAMP accumulation inhibiting activity in SSTR5 expressing CHO cells (forskolin stimulated); format: cell-based; conditions: forskolin 10 μM, CHO cells SSTR5-32-4; read-out: ED50, inhibition of intracellular cAMP accumulation, SSTR5
T3 construct: expressed in transfected cells; host or cells: CHO(dhfr-) cells, clone SSTR5-32-4, plasmid pA-1-11-SSTR5 (vector pAKKO-111)
T3 sequence (P35346 whole entry): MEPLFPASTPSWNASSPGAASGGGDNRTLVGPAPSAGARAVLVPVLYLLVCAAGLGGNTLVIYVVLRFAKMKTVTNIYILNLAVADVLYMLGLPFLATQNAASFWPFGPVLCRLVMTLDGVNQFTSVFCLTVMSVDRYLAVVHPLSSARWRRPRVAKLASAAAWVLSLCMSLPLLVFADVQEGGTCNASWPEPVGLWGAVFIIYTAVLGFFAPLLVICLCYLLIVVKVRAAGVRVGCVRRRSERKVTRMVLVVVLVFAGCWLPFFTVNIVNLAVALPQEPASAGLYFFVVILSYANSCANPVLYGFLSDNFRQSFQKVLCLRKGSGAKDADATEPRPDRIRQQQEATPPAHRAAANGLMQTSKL
Experimental: as §1

T1 sequence (P30872 whole entry): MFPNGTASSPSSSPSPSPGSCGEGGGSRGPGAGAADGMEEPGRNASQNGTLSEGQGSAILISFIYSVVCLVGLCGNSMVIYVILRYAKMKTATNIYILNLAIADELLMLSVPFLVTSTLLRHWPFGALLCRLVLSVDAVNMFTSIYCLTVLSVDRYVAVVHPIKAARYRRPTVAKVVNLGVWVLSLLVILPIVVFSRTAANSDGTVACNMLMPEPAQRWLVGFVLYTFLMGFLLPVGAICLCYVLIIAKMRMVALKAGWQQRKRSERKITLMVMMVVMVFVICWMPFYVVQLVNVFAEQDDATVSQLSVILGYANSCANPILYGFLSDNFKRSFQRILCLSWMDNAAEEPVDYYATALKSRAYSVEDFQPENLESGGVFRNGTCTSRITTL

Row | SMILES | IC50 (human SSTR1) | EC50 (human SSTR2) | EC50 (human SSTR5)
1 | CSCC[C@H](N)C(=O)N1CCC[C@H]1C(=O)N[C@H]1CSSC[C@@H](C(=O)N[C@@H](CCCCN)C(=O)O)NC(=O)[C@H](CO)NC(=O)[C@H](CO)NC(=O)[C@H](Cc2ccccc2)NC(=O)[C@H]([C@@H](C)O)NC(=O)[C@H](CCCCN)NC(=O)[C@H](Cc2c[nH]c3ccccc23)NC(=O)[C@H](Cc2ccccc2)NC(=O)[C@H](Cc2ccccc2)NC(=O)[C@H](CC(N)=O)NC(=O)[C@H](CCCNC(=N)N)NC1=O [hCS-15] (H-MPCRNFFWKTFSSCK-OH; disulfide 3-14; N-terminus and C-terminus assumed) | 7 nM | 7 nM | 0.2 nM
2 | CSCC[C@H](NC(=O)[C@H](CCCNC(=N)N)NC(=O)[C@@H](N)CC(=O)O)C(=O)N1CCC[C@H]1C(=O)N[C@H]1CSSC[C@@H](C(=O)N[C@@H](CCCCN)C(=O)O)NC(=O)[C@H](CO)NC(=O)[C@H](CO)NC(=O)[C@H](Cc2ccccc2)NC(=O)[C@H]([C@@H](C)O)NC(=O)[C@H](CCCCN)NC(=O)[C@H](Cc2c[nH]c3ccccc23)NC(=O)[C@H](Cc2ccccc2)NC(=O)[C@H](Cc2ccccc2)NC(=O)[C@H](CC(N)=O)NC(=O)[C@H](CCCNC(=N)N)NC1=O [hCS-17] | 7 nM | – | 0.2 nM
